In patent US12673052B2, “Combinations for the treatment of cancer” (Exelixis, Inc., priority 2020, dated 2026):
Several values for one entry are separate records, joined by “and”; a condition that tells them apart may be missing. Equal entries are not always repeated.

Legend:
[1] = Liver microsomal stability assay; format: in vitro ADME, dog; conditions: liver microsomes
Procedure: (§1) In the liver microsomal stability assay, CLint was 0.601 mL/min/g liver in mouse, 0.563 mL/min/g liver in rat, 0.315 mL/min/g liver in dog, 0.734 mL/min/g liver in monkey, and 0.639 mL/min/g liver in human. In the hepatocyte stability assay, Compound 1 CLint was 0.373 mL/min/g liver in mouse, 0.285 mL/min/g liver in rat, 1.08 mL/min/g liver in dog, 0.533 mL/min/g liver in monkey, and 0.317 mL/min/g liver in human.

[2] = biological target: MER (Homo sapiens, UniProt Q12866); experiment: Kinase catalytic activity assay, radioactive assay platform; format: biochemical; conditions: 10 μM ATP
Sequence of MER (Q12866 21-999): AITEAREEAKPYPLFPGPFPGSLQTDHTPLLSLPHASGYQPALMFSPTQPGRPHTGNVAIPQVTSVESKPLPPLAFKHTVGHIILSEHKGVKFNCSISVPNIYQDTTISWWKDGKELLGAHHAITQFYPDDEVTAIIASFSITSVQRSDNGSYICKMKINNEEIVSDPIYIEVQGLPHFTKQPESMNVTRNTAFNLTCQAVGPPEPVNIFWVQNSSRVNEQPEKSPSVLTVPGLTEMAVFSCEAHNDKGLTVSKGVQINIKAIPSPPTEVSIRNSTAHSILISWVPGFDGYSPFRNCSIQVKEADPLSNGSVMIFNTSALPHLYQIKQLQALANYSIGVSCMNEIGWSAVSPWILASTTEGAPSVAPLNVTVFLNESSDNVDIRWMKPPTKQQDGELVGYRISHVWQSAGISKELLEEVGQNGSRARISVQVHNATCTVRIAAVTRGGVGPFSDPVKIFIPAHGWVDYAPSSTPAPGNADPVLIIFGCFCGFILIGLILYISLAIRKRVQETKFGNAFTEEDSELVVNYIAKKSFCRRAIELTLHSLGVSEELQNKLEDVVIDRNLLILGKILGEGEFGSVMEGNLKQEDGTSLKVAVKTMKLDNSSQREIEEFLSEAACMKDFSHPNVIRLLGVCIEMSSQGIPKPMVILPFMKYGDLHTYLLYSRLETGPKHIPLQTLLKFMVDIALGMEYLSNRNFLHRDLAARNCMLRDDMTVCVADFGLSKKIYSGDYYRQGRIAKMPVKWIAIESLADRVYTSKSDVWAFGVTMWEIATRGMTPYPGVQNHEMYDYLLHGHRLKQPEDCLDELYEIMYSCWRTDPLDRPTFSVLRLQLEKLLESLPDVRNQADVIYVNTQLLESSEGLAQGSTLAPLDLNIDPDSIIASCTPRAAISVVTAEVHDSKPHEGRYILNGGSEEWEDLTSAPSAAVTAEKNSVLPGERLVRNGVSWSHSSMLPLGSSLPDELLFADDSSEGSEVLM
Procedure: Compound 1 inhibitory activity was evaluated in multiple kinase catalytic activity assays using a radioactive assay platform. […] All in vitro biochemical assays were performed at 10 μM ATP concentrations.

[3] = Single-dose plasma PK, IV and oral (PEG 400:EtOH:RO water); format: in vivo, rats
Procedure: (§2) Plasma PK of Compound 1 was characterized in rats and beagle dogs. Toxicokinetic (TK) evaluations of oral Compound 1 were evaluated in repeat-dose studies in rats and dogs. Plasma protein binding was determined in mouse, rat, dog, monkey, and human plasma in vitro. Biotransformation and metabolite profiling of Compound 1 were investigated in vitro using mouse, rat, dog, monkey, and human liver microsomal fractions and hepatocytes and in vivo in rats and dogs. P-glycoprotein (P-gp) and breast cancer resistance protein (BCRP) transporter interaction studies, in vitro experiments evaluating cytochrome P450 (CYP) induction and inhibition by Compound 1, and CYP and glucuronosyltransferase (UGT) substrate specificity studies of Compound 1 were also performed.
The PK and TK of Compound 1 were assessed in rats and dogs after intravenous (IV; only single dose PK) and oral (PO) administration of Compound 1 in formulations prepared in polyethylene glycol 400 (PEG 400): ethanol (EtOH): reverse osmosis water (RO Water) (45:5:50 v/v/v).
Median time to maximum plasma concentration (Tmax) occurred at approximately 2-3 hours in rats and dogs.
(§3) The mean plasma t1/2, z values were approximately 9 hours in rats and 4 hours in dogs. Interspecies scaling based on body weight to predict PK parameters in humans could not be performed because dogs (larger species) cleared Compound 1 faster than rats (smaller species). Therefore, the human PK was projected based on one species (rat). […] This apparent clearance value (CL/F) was used to predict steady-state exposure (AUC and average plasma concentration [Cavg]) in humans for the proposed first-in-human (FIH) starting dose for Study Compound 1-001.

[4] = Hepatocyte stability assay; format: in vitro ADME, human; conditions: hepatocytes
Procedure: as §3, §1

[5] = Tablet versus PIB formulation, single oral 20 mg dose, parallel design; format: in vivo, dogs; conditions: for half-life: po, read-out: t1/2, z (mean) (converted)
Procedure: In a parallel design study with a total of 24 dogs (1:1 treatment allocation ratio), Group 1 received Compound 1 as a 20-mg oral tablet and Group 2 received a 20-mg reconstituted oral suspension of the PIB formulation. For each dose group, blood samples were collected from each animal at pre-dose and up to 24 hours post-dose for Compound 1 plasma concentration measurements.

[6] = system: primary human macrophages; experiment: Efferocytosis: primary human macrophages cultured with apoptotic Jurkat cells; format: cell-based; conditions: read-out: Cellular IC50 (nM) (n = 2); one row per donor (#1-#5); geometric mean +/− geometric standard deviation
Procedure: In addition, the TAM RTKs are critical in the process of efferocytosis, or the recognition and phagocytosis of apoptotic cells that maintains normal tissue homeostasis. When efferocytosis is inhibited, macrophages engage a proinflammatory activation response. When primary human macrophages are cultured with apoptotic Jurkat cells in the presence of Compound 1, their phagocytic ability was inhibited in a dose dependent manner. In Table 5, the IC50 from 5 independent donors are listed.

[7] = system: MC38 tumor; experiment: Tumor microvessels by CD31 staining in MC38 tumor-bearing animals; format: in vivo, murine
Procedure: MC38 tumor-bearing animals were treated with a range of Compound 1 doses (PO, qd; 3 mg/kg, 10 mg/kg, 30 mg/kg Compound 1) for 5 days. Tumors were analyzed for the presence of tumor microvessels by CD31 staining. FIG. 1A and FIG. 1B compare the tumor microvessels after administration of different doses of Compared 1 with vehicle.

[8] = system: primary human macrophages; experiment: Macrophage re-polarization: primary CD14+ monocytes cultured in M2 polarizing conditions; format: cell-based; conditions: donor (A, H, L, D, B), Donor A and B n = 1
Procedure: The TAM RTKs play an important role in balancing the functions of M1 and M2 macrophage subsets. Compound 1 was tested for inhibition against primary CD14+ monocytes cultured in M2 polarizing conditions. A dose dependent polarization of the monocytes to pro-inflammatory M1 macrophages across cells from all tested donors was observed (Table 4).

[9] = biological target: CYP2D6 (Homo sapiens, UniProt P10635); experiment: Cytochrome P450 inhibition in vitro; format: in vitro ADME; conditions: low CYP inhibition potential
Sequence of CYP2D6 (P10635 whole entry): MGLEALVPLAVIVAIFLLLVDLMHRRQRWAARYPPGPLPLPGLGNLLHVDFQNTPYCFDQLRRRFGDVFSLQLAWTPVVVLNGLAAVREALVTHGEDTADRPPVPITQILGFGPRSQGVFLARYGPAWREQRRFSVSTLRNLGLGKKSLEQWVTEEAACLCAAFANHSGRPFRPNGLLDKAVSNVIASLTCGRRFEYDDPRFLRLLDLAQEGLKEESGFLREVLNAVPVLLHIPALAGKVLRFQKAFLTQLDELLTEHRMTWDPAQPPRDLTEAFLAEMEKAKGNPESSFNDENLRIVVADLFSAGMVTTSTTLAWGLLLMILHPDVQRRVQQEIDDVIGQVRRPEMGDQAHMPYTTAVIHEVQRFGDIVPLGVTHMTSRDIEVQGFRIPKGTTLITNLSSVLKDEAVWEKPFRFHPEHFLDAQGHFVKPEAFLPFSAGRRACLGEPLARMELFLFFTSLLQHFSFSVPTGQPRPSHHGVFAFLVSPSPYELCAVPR
Procedure: as §2

[10] = biological target: CYP3A4 (Homo sapiens, UniProt P08684); experiment: Cytochrome P450 inhibition in vitro; format: in vitro ADME
Sequence of CYP3A4 (P08684 whole entry): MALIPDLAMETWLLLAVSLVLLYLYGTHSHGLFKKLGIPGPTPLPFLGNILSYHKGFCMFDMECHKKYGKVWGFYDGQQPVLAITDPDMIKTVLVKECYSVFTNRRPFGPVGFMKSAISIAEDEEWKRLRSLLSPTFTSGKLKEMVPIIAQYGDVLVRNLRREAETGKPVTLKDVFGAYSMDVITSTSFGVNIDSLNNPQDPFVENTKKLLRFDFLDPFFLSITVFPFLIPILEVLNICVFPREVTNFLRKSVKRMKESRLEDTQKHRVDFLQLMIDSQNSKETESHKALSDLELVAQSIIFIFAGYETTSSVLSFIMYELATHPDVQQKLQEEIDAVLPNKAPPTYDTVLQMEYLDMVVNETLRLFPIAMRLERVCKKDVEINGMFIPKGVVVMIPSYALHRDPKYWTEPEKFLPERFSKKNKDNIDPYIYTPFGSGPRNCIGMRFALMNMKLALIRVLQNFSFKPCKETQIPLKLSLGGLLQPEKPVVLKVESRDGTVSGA
Procedure: as §2

[11] = biological target: CYP2C19 (Homo sapiens, UniProt P33261); experiment: Cytochrome P450 inhibition in vitro; format: in vitro ADME
Sequence of CYP2C19 (P33261 whole entry): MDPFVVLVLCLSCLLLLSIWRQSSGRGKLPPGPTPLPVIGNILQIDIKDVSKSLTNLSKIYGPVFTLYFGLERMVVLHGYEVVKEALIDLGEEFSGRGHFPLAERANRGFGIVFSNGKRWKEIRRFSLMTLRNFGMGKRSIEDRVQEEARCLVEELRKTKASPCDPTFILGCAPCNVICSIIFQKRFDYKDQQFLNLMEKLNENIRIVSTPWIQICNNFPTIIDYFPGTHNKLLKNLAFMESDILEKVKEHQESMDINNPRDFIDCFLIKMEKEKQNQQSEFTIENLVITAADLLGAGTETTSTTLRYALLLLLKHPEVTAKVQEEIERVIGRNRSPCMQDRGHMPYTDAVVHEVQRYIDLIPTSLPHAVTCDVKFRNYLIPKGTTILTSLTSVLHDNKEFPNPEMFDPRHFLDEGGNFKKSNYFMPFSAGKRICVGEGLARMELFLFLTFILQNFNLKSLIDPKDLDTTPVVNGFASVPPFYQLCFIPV
Procedure: as §2

[12] = biological target: CYP 2B6 (Homo sapiens, UniProt P20813); experiment: Cytochrome P450 inhibition in vitro; format: in vitro ADME; conditions: low CYP inhibition potential
Sequence of CYP 2B6 (P20813 whole entry): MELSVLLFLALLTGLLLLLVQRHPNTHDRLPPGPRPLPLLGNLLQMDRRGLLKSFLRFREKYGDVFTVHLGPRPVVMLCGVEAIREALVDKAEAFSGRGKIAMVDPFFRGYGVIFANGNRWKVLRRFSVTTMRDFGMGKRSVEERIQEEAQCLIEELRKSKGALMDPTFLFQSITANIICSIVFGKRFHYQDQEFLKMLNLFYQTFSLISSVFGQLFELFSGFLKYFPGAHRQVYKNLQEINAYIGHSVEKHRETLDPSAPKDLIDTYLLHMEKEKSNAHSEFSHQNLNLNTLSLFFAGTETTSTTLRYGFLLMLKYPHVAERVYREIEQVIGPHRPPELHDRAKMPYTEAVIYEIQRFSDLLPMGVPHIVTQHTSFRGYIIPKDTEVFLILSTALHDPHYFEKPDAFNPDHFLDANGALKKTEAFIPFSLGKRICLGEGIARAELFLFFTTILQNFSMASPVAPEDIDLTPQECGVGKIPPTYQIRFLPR
Procedure: as §2

[13] = biological target: MET (Homo sapiens, UniProt P08581); experiment: In vivo target modulation: MET phosphorylation by Western blot in SNU-5 xenografts; parameters: endogenous in cells; host or cells: SNU-5 human tumour xenografts in CB.17 SCID mice; species or system CB.17 SCID mice; conditions: for Compound 1 Plasma Exposure: qd × 14, 4 hours after last dose on Day 14
Sequence of MET (P08581 25-1390): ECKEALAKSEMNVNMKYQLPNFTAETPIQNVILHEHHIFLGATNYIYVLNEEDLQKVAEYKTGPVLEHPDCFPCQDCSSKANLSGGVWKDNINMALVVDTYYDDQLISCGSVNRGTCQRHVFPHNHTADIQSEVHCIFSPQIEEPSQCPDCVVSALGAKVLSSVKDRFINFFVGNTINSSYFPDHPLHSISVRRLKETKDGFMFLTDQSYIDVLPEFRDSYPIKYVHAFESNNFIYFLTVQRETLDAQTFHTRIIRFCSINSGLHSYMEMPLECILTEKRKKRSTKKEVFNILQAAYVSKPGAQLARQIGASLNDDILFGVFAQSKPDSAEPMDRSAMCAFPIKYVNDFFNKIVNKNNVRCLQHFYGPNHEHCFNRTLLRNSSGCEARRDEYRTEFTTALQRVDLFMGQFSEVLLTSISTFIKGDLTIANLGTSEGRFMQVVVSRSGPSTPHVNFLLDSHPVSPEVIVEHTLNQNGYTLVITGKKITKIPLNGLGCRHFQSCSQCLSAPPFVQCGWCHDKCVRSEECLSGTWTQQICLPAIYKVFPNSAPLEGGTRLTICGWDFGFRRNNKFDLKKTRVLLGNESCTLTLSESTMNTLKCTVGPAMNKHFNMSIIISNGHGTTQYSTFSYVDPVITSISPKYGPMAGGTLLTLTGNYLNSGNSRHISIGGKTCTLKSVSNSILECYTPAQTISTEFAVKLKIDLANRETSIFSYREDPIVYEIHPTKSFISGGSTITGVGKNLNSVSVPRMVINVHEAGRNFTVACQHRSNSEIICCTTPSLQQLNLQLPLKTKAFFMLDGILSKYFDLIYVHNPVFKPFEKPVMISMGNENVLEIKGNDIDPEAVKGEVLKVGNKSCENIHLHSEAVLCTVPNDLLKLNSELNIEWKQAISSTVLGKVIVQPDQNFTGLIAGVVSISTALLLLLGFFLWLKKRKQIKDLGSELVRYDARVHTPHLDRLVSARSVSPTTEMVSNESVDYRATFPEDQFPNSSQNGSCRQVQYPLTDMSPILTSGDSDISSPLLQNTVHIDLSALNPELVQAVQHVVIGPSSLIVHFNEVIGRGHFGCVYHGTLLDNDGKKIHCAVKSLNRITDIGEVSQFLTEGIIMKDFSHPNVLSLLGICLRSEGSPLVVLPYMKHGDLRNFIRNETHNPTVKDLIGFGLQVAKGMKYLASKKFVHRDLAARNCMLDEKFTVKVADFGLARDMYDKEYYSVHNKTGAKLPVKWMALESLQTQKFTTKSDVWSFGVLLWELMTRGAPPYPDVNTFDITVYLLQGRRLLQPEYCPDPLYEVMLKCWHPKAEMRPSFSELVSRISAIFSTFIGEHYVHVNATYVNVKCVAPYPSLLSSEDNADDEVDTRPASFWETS
Procedure: Three human tumor cell lines, NCI-H441, MDA-MB-231, and SNU-5, were selected for use in tumor xenograft studies using athymic nude, NSG and CB.17 SCID mice, respectively. Pharmacodynamic modulation of MET phosphorylation was also measured in the NCI-H441 and SNU-5 xenografts. Tumor-bearing mice were orally dosed once-daily for 14 days (qd×14), and the tumors were resected and processed for MET phosphorylation analysis by Western blot. […]

[14] = SNU-5, mouse, po, read-out: p-MET Inhibition %

## CNC(=O)c1cc2c(Oc3ccc(NC(=O)C4(C(=O)Nc5ccc(F)cc5)CC4)cc3)ccnc2cc1OC [Compound 1, 1-N′-(4-Fluorophenvl)-1-N-[4-[7-methoxy-6-(methylcarbamovl)quinolin-4-yl]oxyphenyl]cyclopropane-1,1-dicarboxamide]
[1]
  CLint: 0.315 mL/min/g liver
[2]
  IC50: 0.6 nM
[3]; rat, plasma, po, 0.09-0.27 mg/kg, read-out: Oral absolute bioavailability
  bioavailability: 62 to 77%
[3]; rat, plasma, after oral administration, read-out: terminal phase half-life (t1/2, z)
  half-life: 4.5 to 5.3 h
[3]; rat, plasma, single oral dose, read-out: Median time to maximum plasma concentration (Tmax)
  Tmax: 2 to 3 h
[3]; rat, plasma, single-dose IV 0.09-0.27 mg/kg, read-out: mean plasma clearance (CL) (converted)
  clearance: 0.39 mL/min/kg
[3]; rat, plasma, single-dose IV, read-out: mean plasma t1/2, z (converted)
  half-life: ~9 h
[3]; rat, plasma, single-dose IV, read-out: mean volume of distribution at steady-state (Vss)
  Vd: 0.167 L/kg
[3]; single oral doses 0.09-0.27 mg/kg
  increase of exposure (Cmax and AUC0-inf) with dose: approximately dose proportionally
[4]
  CLint: 0.317 mL/min/g liver
[5]; 20 mg single oral dose
  mean AUC0-24 of PIB formulation higher than tablet formulation: 49%
  mean Cmax of PIB formulation higher than tablet formulation: 61%
[5]; beagle, dog, plasma, oral, 20 mg, both formulations (PIB and tablet), read-out: median tmax
  Tmax: 3 h
[5]; beagle, dog, plasma, 20 mg, 20 mg reconstituted oral suspension of PIB formulation
  half-life: 4.85 h
[5]; beagle, dog, plasma, 20 mg, 20-mg oral tablet
  half-life: 5.66 h
[6]
  IC50: 42.7 nM and 45.1 nM and 44 nM and 96.5 nM and 181 nM
[7]; 30 mg/kg PO qd 5 days, vehicle 26.9
  average vessel number (CD31 staining): 17.6
[7]; 3, 10, 30 mg/kg PO qd 5 days
  presence of tumor microvessels: Dose-dependent decreases
[8]; 2 uM
  M1/M2 Ratio, Fold Change Relative to DMSO (n = 2): 1.3 ± 2.6 and 1.7 (2×) and 1.0 ± 2.6 and 2.2 ± 1.1
[8]; 4 uM
  M1/M2 Ratio, Fold Change Relative to DMSO (n = 2): 3.6 ± 1.2 and 4.1 and 3.3 and 3.7 ± 1.2 and 3.4 ± 1.4
[8]; 6 uM
  M1/M2 Ratio, Fold Change Relative to DMSO (n = 2): 3.5 ± 1.2 and 4.0 and 4.6 and 4.5 ± 1.0 and 4.6 ± 1.7
[9]
  IC50: > 33000 nM
[10]
  Ki: 25200 nM
[10]; testosterone as probe substrate
  time-dependent inhibition: time-dependent inhibitor
[11]
  Ki: 1360 nM
[12]
  IC50: > 33000 nM
[13]; 3 mg/kg
  Compound 1 Plasma Exposure: 1.88 µM
[13]; 10 mg/kg
  Compound 1 Plasma Exposure: 7.64 µM
[13]; [14]
  inhibition at 3 mg/kg: 26%
  inhibition at 10 mg/kg: 67%
